The results in this text go back to patent publication US20240166602A1, “SUBSTITUTED DIARYL COMPOUND AS WELL AS PREPARATION METHOD AND APPLICATION THEREOF” (SHANDONG FIRST MEDICAL UNIV & SHANDONG ACADEMY OF MEDICAL …, priority 2021, published 2024).

What all share (assay type): cell-based
In test [1] the test system is human colon cancer (LOVO) cells. As to the kind of experiment: MTT tumor cell growth inhibition, human colon cancer (LOVO). The following applies: Homo sapiens, 48 h culture, MTT method, read-out: IC50 value of target compound against cancer cell proliferation, LOVO. As to the method:
(§1) Dissolve CHJ compound series with dimethyl sultbxide (DMSO, final concentration 0.4%), and use RPMI-1640 culture medium containing 15% fetal calf serum to prepare 1 mg/mL solution for future use. During drug administration in groups, use the culture medium to dilute it to the concentration needed.
(§2) Cell lines: human lung cancer (A549), Inman ovarian cancer (SKOV3), human melanoma (A375) and human colon cancer (LOVO) cell lines, all purchased from the Cell Bank of the Chinese Academy of Sciences, DMEM containing 15% fetal bovine serum (High Glucose) culture medium, placed in a 37° C., 5% CO2 incubator.
(§3) MTT is an oxidizing yellow dye with the chemical name of 3-(4,5-dimethyl-2-thiazolyl)-2,5-diphenyl-2-H-tetrazoliumbromide tetrazole bromide. The MMT method, also known as the MTT colorimetric method, can test the survival and growth of cells. The method is simple and easily accessible and often used to screet the substance with cytotoxic activity. The basic principle of testing, is that succinodehydrogenase can reduce exogenous MIT so that MTT is reduced to blueviolet crystal Formazan insoluble to water. The crystal deposits in cells. The succinodehydrogenase exists in the mitochondria of living cells, not in the dead cells. Therefore, the chromogenic reaction can only take place in living cells. Then, dissolve the blueviolet crystal Formazan contained in cells with dimethyl sulfoxide (DMSO), and measure its absorbancy with microplate reader so that the count of living cells is reflected indirectly. Within the scope of certain cell count, the amount of blueviolet crystal Formazan formed is positively correlated to the count of living cells.
(§4) Human lung cancer (A549), human ovarian cancer (SKOV3), human melanoma (A375) and human colon cancer (LOVO) ceilsare all adherent. Based on the growth rate of tumor cells, wash the adherent tumor cells in the logarithmic phase and digest them in 0.25% EDTA pancreatic enzyme. Adjust the cell count to 1×10^5/mL and inoculate the cells in 96-pore plate, each pore containing 100 μL. Culture the cells in the 37° C. CO2 incubator, and administer the drug 24 h later. Add pharmaceutical (CJH compound series) of different concentrations to the administration group. Set up 5 dosage groups for each pharmaceutical, respectively 100, 10, 1, 0.1, 0.01 μmol/L. Set up three complex pores for each concentration. Set up blank control, DMSO (0.8%) solvent control and cis-platinum positive control. After 48 h of culture in the 37 ° C. incubator containing 5% CO2, measure the OD value through MTT method and calculate the cell inhibition ratio.
(§5) After 48 h of culture of human lung cancer (A549), human ovarian cancer (SKOV3). human melanoma (A375) and human colon cancer (LOVO) cells, stop it and add 10 μL 0.5% MTT solution to each pore. Place it in the CO2 incubator for 4 h. Remove the liquid from each pore, respectively add 0.2 mL DMSO solution, and oscillate it adequately on the table concentrator under low frequency so that the blueviolet crystal Formazan is dissolved adequately. Place it in the microplate reader and record the OD value at the wavelength of […]. Calculate the average OD value of three parallel pores of different concentrations, and calculate the cell inhibition ratio and IC50 of each tested pharmaceutical under different concentrations based on the average.
(§6) Inhibition ratio (%)=[1-tested sample OD/negative control group OD]×100%.

Test [2] has as its system human lung cancer (A549) cells. As to the kind of experiment: MTT tumor cell growth inhibition, human lung cancer (A549). The following applies: Homo sapiens; A549, 48 h culture, MTT method; read-out: IC50 value of target compound against cancer cell proliferation, A549. On the procedure:
as §1, §2, §3, §4, §5, §6

Test [3] has as its system human ovarian cancer (SKOV3) cells. As to the kind of experiment: MTT tumor cell growth inhibition, human ovarian cancer (SKOV3). The following applies: Homo sapiens, SK-OV-3; SKOV3, 48 h culture, MTT method; read-out: IC50 value of target compound against cancer cell proliferation, SKOV3. As to the method: as §1, §2, §3, §4, §5, §6
Test [4] deals with human melanoma (A375) cells. Put plainly: MTT tumor cell growth inhibition, human melanoma (A375). The following applies: Homo sapiens, A-375; A375, 48 h culture, MTT method; read-out: IC50 value of target compound against cancer cell proliferation, A375. As to the method:
as §1, §2, §3, §4, §5, §6

For `COc1cc(CN(C)CC(O)COc2c(Cl)cccc2Cl)ccc1OCCN1CCC(C)CC1` (centres unmarked) [CHJ02029, 1-(2,6-dichlorophenoxy)-3-((3-methoxy-4-(2-(4-methylpiperidin-1-yl)ethoxy)benzyl) (methyl)amino)propan-2-ol], the IC50 came out at 1.87 ± 0.02 µM in test [1], 3.55 ± 0.06 µM in test [2], 6.3 ± 0.16 µM in test [3] and 2.43 ± 0.12 µM in test [4].

Turning to `COc1cc(CN(C)CC(O)COc2ccc(Br)c(C(F)(F)F)c2)ccc1OCCN1CCC(C)CC1` (centres unmarked) [CHJ02049, 1-(4-bromo-3-(trifluoromethyl)phenoxy)-3-((3-methoxy-4-(2-(4-methylpiperidin-1-yl)ethoxy)benzyl)(methyl)amino)propan-2-ol], the IC50 in test [1] was 1.25 ± 0.03 µM; in test [2] it was 0.52 ± 0.23 µM; in test [3], 0.62 ± 0.08 µM; in test [4] it was 0.62 ± 0.04 µM.

In the case of `COc1cc(CN(C)CC(O)COc2cc(C(F)(F)F)ccc2C(F)(F)F)ccc1OCCN1CCC(C)CC1` (centres unmarked) [CHJ02050, 1-(2,5-bis(trifluoromethyl)phenoxy)-3-((3-methoxy-4-(2-(4-methylpiperidin-1-yl)ethoxy)benzyl)(methyl)amino)propan-2-ol], the IC50 in test [1] turned out to be 3.88 ± 1.8 µM; in test [2], 1.09 ± 1.55 µM; in test [3], 4.04 ± 0.06 µM; in test [4], 1.87 ± 0.07 µM.

With `COc1cc(CN(C)CC(O)COc2cccc(Br)c2)ccc1OCCN1CCC(C)CC1` (centres unmarked) [CHJ03001, 1-(3-bromophenoxy)-3-((3-methoxy-4-(2-(4-methylpiperidin-1-yl)ethoxy)benzyl) (methyl)amino)propan-2-ol], the IC50 came out at 1.26 ± 0.53 µM in test [1], 1.3 ± 1.03 µM in test [2], 2.48 µM in test [3] and 1.95 ± 0.33 µM in test [4].

As to `COc1cc(CN(C)CC(O)COc2ccccc2Br)ccc1OCCN1CCC(C)CC1` (centres unmarked) [CHJ03003, 1-(2-bromophenoxy)-3-((3-methoxy-4-(2-(4-methylpiperidin-1-yl)ethoxy)benzyl) (methyl)amino)propan-2-ol], the IC50 was found to be 0.7 ± 0.26 µM in test [1], 6.08 ± 0.9 µM in test [2], 3 ± 0.99 µM in test [3] and 5.95 ± 0.42 µM in test [4].

`COc1cc(CN(C)CC(O)COc2ccccc2C(C)C)ccc1OCCN1CCC(C)CC1` (centres unmarked) [CHJ03004, 1(2-isopropylphenoxy)-3-((3-methoxy-4-(2-(4-methylpiperidin-1yl)ethoxy)benzyl) (methyl)amino)propan-2-ol]: the IC50 was 2.54 ± 0.1 µM in test [1], 2.1 ± 1.25 µM in test [2], 6.19 ± 0.25 µM in test [3] and 0.72 ± 0.8 µM in test [4].

Take `COc1cc(CN(C)CC(O)COc2ccc(Br)cc2OC)ccc1OCCN1CCC(C)CC1` (centres unmarked) [CHJ03005, 1-(4-bromo-2-methoxypbenoxy)-3-((3-methoxy-4-(2-(4-methylpiperidin-1-yl)ethoxy)benzyl)(methyl)amino)propan-2-ol]: the IC50 in test [1] was found to be 6.66 ± 0.11 µM; in test [2] it was 15.6 ± 0.16 µM; in test [3] it was 3.99 ± 0.21 µM; in test [4] it was 5.6 ± 0.81 µM.

With `COc1cc(CN(C)CC(O)COc2ccc(Br)cc2)ccc1OCCN1CCC(C)CC1` (centres unmarked) [CHJ03014], the IC50 stood at 0.53 ± 0.15 µM in test [1], 1.09 ± 0.06 µM in test [2] and 6.19 ± 0.62 µM in test [3].

For the compound `COc1cc(CN(C)CC(O)COc2cccc(C(C)C)c2)ccc1OCCN1CCC(C)CC1` (centres unmarked) [CHJ03015, 1-(3-isopropylphenoxy)-3-((3-methoxy-4-(2-(4-methylpiperidin-1-yl)ethoxy)benzyl) (methyl)amino)propan-2-ol], the results for the IC50 in test [1], in test [2] and in test [3] were 0.55 ± 0.21 µM, 1.03 ± 0.13 µM and 4.47 ± 1.62 µM, respectively.

In the case of `COc1cccc(OCC(O)CN(C)Cc2ccc(OCCN3CCC(C)CC3)c(OC)c2)c1` (centres unmarked) [CHJ03017, 1-((3-methoxy-4-(2-(4-methylpiperidin-1-yl)ethoxy)benzyl)(methyl)amino)-3-(3-methoxyphenoxy)propan2-ol], the IC50 in test [1] worked out at 2.44 ± 0.03 µM; in test [2], 17.2 ± 0.79 µM; in test [3] it was 6.21 ± 1.04 µM; in test [4] it was 8.68 ± 0.11 µM.

For the compound `COc1cc(CN(C)CC(O)COc2cc(Br)ccc2F)ccc1OCCN1CCC(C)CC1` (centres unmarked) [CHJ03018], the IC50 worked out at 1.72 ± 1.58 µM in test [1], 18.8 ± 1.06 µM in test [2], 1.79 ± 0.23 µM in test [3] and 3.13 ± 0.06 µM in test [4].

As for `COc1cc(CN(C)CC(O)COc2ccc(Cl)c(Br)c2)ccc1OCCN1CCC(C)CC1` (centres unmarked) [CHJ03043, 1-(3-bromo-4-chlorophenoxy)-3-((3-methoxy-4-(2-(4-methylpiperidia-1-yl)ethoxy)benzyl)(methyl)amino)propan-2-ol], the IC50 in test [1] stood at 0.95 ± 0.41 µM; in test [2], 2.5 ± 1.32 µM; in test [3], 2.9 ± 0.19 µM; in test [4], 0.54 ± 0.26 µM.

For the compound `COc1cc(CN(C)CC(O)COc2ccc(C)c(Br)c2)ccc1OCCN1CCC(C)CC1` (centres unmarked) [CHJ04010, 1-(3-bromo-4-methylphenoxy)-3-((3-methoxy-4-(2-(4-methylpiperidin-1-yl)ethoxy)benzyl)(methyl)amino)propan-2-ol], the IC50 in test [1] was determined as 2.78 ± 0.23 µM; in test [3], 4.96 ± 1.26 µM; in test [4] it was 0.45 ± 0.46 µM.

With `COc1cc(CN(C)CC(O)COc2cc(C(F)(F)F)ccc2Br)ccc1OCCN1CCC(C)CC1` (centres unmarked) [CHJ04011], the IC50 worked out at 1.01 ± 0.08 µM in test [1], 4.05 ± 1.12 µM in test [2], 2.41 ± 1.03 µM in test [3] and 0.48 ± 0.28 µM in test [4].

In the case of `COc1cc(CN(C)CC(O)COc2cc(Cl)cc(Cl)c2)ccc1OCCN1CCC(C)CC1` (centres unmarked) [CHJ04012, 1-(3,5-dichlorophenoxy)-3-((3-methoxy-4-(2-(4-methylpiperidin-1-yl)ethoxy)benzyl) (methyl)amino)propan-2-ol], the IC50 in test [1] came to 2.12 ± 0.04 µM; in test [2] it was 6.38 ± 0.07 µM; in test [3], 4.34 ± 0.32 µM; in test [4], 1.24 ± 1.01 µM.

As to `COc1cc(CN(C)CC(O)COc2ccc(F)c(Br)c2)ccc1OCCN1CCC(C)CC1` (centres unmarked) [CHJ04020, 1-(3-bromo-4-fluorophenoxy)-3-((3-methoxy-4-(2-(4-methylpiperidin-1-yl)ethoxy)benzyl)(methyl)amino)propan-2-ol], the IC50 turned out to be 3.83 ± 1.8 µM in test [1], 1.38 ± 1.14 µM in test [2], 3.4 ± 1.17 µM in test [3] and 1.6 ± 0.92 µM in test [4].

Take `COc1cc(CN(C)CC(O)COc2cc(F)cc(Br)c2)ccc1OCCN1CCC(C)CC1` (centres unmarked) [CHJ04023]: the IC50 in test [1] came to 3.07 ± 1.62 µM; in test [2], 5.44 ± 2.54 µM; in test [3], 8.03 ± 2.77 µM; in test [4], 0.81 ± 0.33 µM.

As for `COc1cc(CN(C)CC(O)COc2cccc(Cl)c2)ccc1OCCN1CCC(C)CC1` (centres unmarked) [CHJ04024], the IC50 worked out at 18.6 ± 3.22 µM in test [1], 5.45 ± 1.03 µM in test [2], 1.37 ± 0.34 µM in test [3] and 0.98 ± 0.76 µM in test [4].

For the compound `COc1cc(CN(C)CC(O)COc2cccc(C(F)(F)F)c2)ccc1OCCN1CCC(C)CC1` (centres unmarked) [CHJ04025, 1-((3-methoxy-4-(2-(4-methylpiperidin-1-yl)ethoxy)benzyl)(methyl)amino)-3-(3-(trifluoromethyl)phenoxy)propan-2-ol], the IC50 in test [1] was 2.55 ± 1.65 µM; in test [2], 4.21 ± 2.24 µM; in test [3] it was 3.32 ± 1.02 µM; in test [4], 2.34 ± 1.63 µM.

On to `COc1cc(CN(C)CC(O)COc2cc(C(F)(F)F)ccc2Br)ccc1OCCN1CCCC1` (centres unmarked) [CHJ04065, 1-(-bromo-5-(trifluoromethyl)phenoxy)-3-((3-methoxy-4-(2-(pyrrolidin-1-yl)ethoxy)benzyl)(methyl)amino)propan-2-ol], for which the IC50 in test [1] stood at 3.14 ± 1.06 µM; in test [2], 25.5 ± 2.11 µM; in test [3], 27.1 ± 1.62 µM.

For `COc1cc(CN(C)CC(O)COc2ccccc2OC)ccc1OCCN1CCC(C)CC1` (centres unmarked) [CHJ04086], the IC50 in test [4] is 34.7 ± 3.42 µM.
